Data on nine compounds can be found in publication PMC8838590, “Recognition of Dimethylarginine Analogues by Tandem Tudor Domain Protein Spindlin1” (Molecules, 2022).

The target of one experiment is T1, Spindlin1 (SPIN1_49-262) (Homo sapiens, UniProt Q9Y657).
T1 construct: SPIN1_49-262 was expressed and purified as described previously; His tag; made in house; host or cells: E. coli BL21
In words: Isothermal titration calorimetry of 15-mer H3K4me3X8 peptides binding to Spindlin1. As to conditions: ITC; for ΔH° / −TΔS°: 25.0 °C, 20 mM Tris, 100 mM NaCl pH 8.0, mean ± SD of 3 repeated ITC experiments. As for the experimental part: Spindlin1 was dialysed against ITC buffer containing 100 mM NaCl and 20 mM Tris HCl buffer (pH 8.0).
SPIN1_49-262 was expressed and purified as described previously. Briefly, His-tagged SPIN1 was expressed in E.coli strain BL21 at 37 °C until OD600 = 2.0. Protein expression was induced by the addition of 0.1 mM IPTG, followed by incubation at 18 °C overnight. Bacteria were harvested by centrifugation and subsequent resuspension of the pellet in buffer containing 50 mM Hepes pH 7.5, 500 mM NaCl, 10 mM Imidazole, 5% glycerol, 0.5 mM TCEP, and a protease inhibitor cocktail (Sigma, St. Louis, MO, USA). After lysis and centrifugation, His-tagged SPIN1 was affinity purified by Ni^2+-NTA-agarose chromatography (Cytiva, Marlborough, MA, USA) applying a gradient of imidazole. Subsequent size exclusion chromatography (Superdex 75, Cytiva) was performed with buffer containing 10 mM Hepes pH 7.5, 500 mM NaCl, 5% glycerol, and 0.5 mM TCEP.
Isothermal titration calorimetry was performed at 25 °C on a fully automated Microcal Auto-iTC200 (GE Healthcare Life Sciences, Marlborough, MA, USA). SPIN1_49-262 was dialysed against ITC buffer containing 20 mM Tris, 100 mM NaCl pH 8.0. Titrations were carried out with an initial injection of 0.5 μL, followed by 19 injections of 2 μL at a total concentration of 20 μM SPIN1_49-262 and 150-370 μM peptide. Fitting and analyses of the acquired titration curves were performed with Origin 6.0 (Microcal Inc., Northampton, MA, USA) using the One Set of Binding Sites model.
(In general: In ITC the heat of successive injections is recorded.)

The target of experiment [1] is H3K4me3K9me3 peptide (Homo sapiens) (UniProt P68431). The conditions noted are these: cited from earlier work.
The target in experiment [2] is H3K4me3R8me1 peptide (Homo sapiens) (UniProt P68431). The conditions noted are these: cited from earlier work.
Experiment [3] deals with H3K4me3R8me2s peptide (Homo sapiens) (UniProt P68431). The conditions noted are these: cited from earlier work.
Experiment [4] has as its target H4K20me3 peptide (Homo sapiens) (UniProt P62805). The conditions noted are these: cited from earlier work.
The target of experiment [5] is H3K4me3R8me2a 10-mer peptide (Homo sapiens) (UniProt P68431). As to conditions: cited from earlier work.

Starred links: 1 amine or outer side, 2 acyl side, 3 side chain; linkers in the order of their positions; H or OH if unused. Non-standard residues stand in square brackets, D forms with d. Residues, ends and D or L forms follow the SMILES beside them. Groups on a side chain read outwards from the residue. X3 = N=C(NCCC[C@H](N[*:1])C(=O)[*:2])N1CCCCC1; X2 = CCN(CC)C(=N)NCCC[C@H](N[*:1])C(=O)[*:2]; X4 = N=C(NCCC[C@H](N[*:1])C(=O)[*:2])N1CCCC1; X5 = CN(C)C(=N)NCCCC[C@H](N[*:1])C(=O)[*:2]; X6 = CCN(C)C(=N)NCCC[C@H](N[*:1])C(=O)[*:2]; X1 = CN(C)C(=N)NCC[C@H](N[*:1])C(=O)[*:2]; Lys(Me3) = C[N+](C)(C)CCCC[C@H](N)C(=O)O; Orn = NCCC[C@H](N)C(=O)O; CO = O=C([*:1])[*:2]

Chain of Spindlin1 (Q9Y657 whole entry): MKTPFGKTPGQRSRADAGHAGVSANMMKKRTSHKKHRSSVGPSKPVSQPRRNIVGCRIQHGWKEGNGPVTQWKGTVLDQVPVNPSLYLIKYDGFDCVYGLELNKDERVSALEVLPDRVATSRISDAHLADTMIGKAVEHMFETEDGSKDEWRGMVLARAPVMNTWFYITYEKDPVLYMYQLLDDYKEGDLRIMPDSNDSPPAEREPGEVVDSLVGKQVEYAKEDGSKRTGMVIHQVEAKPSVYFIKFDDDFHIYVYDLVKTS
T1 sequence (Q9Y657 49-262): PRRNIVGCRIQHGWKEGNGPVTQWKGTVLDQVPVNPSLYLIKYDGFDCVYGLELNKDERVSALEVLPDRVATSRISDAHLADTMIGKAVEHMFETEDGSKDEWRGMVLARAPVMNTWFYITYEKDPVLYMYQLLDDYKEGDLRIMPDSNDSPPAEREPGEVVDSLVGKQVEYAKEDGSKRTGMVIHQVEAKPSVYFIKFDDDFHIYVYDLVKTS

For `C[C@H](N)C(=O)N[C@@H](CCCNC(=N)N)C(=O)N[C@H](C(=O)N[C@@H](CCCC[N+](C)(C)C)C(=O)N[C@@H](CCC(N)=O)C(=O)N[C@H](C(=O)N[C@@H](C)C(=O)N[C@@H](CCCNC(=O)N(C)C)C(=O)N[C@@H](CCCCN)C(=O)N[C@@H](CO)C(=O)N[C@H](C(=O)NCC(=O)NCC(=O)N[C@@H](CCCCN)C(=O)N[C@@H](C)C(N)=O)[C@@H](C)O)[C@@H](C)O)[C@@H](C)O` [H3K4me3Cit8me2] (H-ART[Lys(Me3)]QTA[Orn]([CO-NMe2])KSTGGKA-NH2), at Spindlin1 (SPIN1_49-262) (SD), the “ΔH°” value was -65.3 ± 1.3 kJ/mol and the “−TΔS°” value amounted to 24.7 ± 0.84 kJ/mol. For the same compound, at Spindlin1 (SPIN1_49-262) (relative to H3K4me3R8me2a), the “ΔΔH°” value worked out at 7.11 kJ/mol and the “−TΔΔS°” value is -4.6 kJ/mol.
For `CCN(CC)C(=N)NCCC[C@H](NC(=O)[C@H](C)NC(=O)[C@@H](NC(=O)[C@H](CCC(N)=O)NC(=O)[C@H](CCCC[N+](C)(C)C)NC(=O)[C@@H](NC(=O)[C@H](CCCNC(=N)N)NC(=O)[C@H](C)N)[C@@H](C)O)[C@@H](C)O)C(=O)N[C@@H](CCCCN)C(=O)N[C@@H](CO)C(=O)N[C@H](C(=O)NCC(=O)NCC(=O)N[C@@H](CCCCN)C(=O)N[C@@H](C)C(N)=O)[C@@H](C)O` [H3K4me3R8et2a] (H-ART[Lys(Me3)]QTA[X2]KSTGGKA-NH2), on Spindlin1 (SPIN1_49-262) (SD), the “ΔH°” value is -80.8 ± 2.5 kJ/mol and the “−TΔS°” value is 38.9 ± 2.5 kJ/mol.
As for `CCN(C)C(=N)NCCC[C@H](NC(=O)[C@H](C)NC(=O)[C@@H](NC(=O)[C@H](CCC(N)=O)NC(=O)[C@H](CCCC[N+](C)(C)C)NC(=O)[C@@H](NC(=O)[C@H](CCCNC(=N)N)NC(=O)[C@H](C)N)[C@@H](C)O)[C@@H](C)O)C(=O)N[C@@H](CCCCN)C(=O)N[C@@H](CO)C(=O)N[C@H](C(=O)NCC(=O)NCC(=O)N[C@@H](CCCCN)C(=O)N[C@@H](C)C(N)=O)[C@@H](C)O` [H3K4me3R8etme] (H-ART[Lys(Me3)]QTA[X6]KSTGGKA-NH2), on Spindlin1 (SPIN1_49-262) (SD), the “ΔH°” value is -87 ± 2.5 kJ/mol and the “−TΔS°” value came to 46.9 ± 2.5 kJ/mol.
As to `C[C@H](N)C(=O)N[C@@H](CCCNC(=N)N)C(=O)N[C@H](C(=O)N[C@@H](CCCC[N+](C)(C)C)C(=O)N[C@@H](CCC(N)=O)C(=O)N[C@H](C(=O)N[C@@H](C)C(=O)N[C@@H](CCCNC(=N)N(C)C)C(=O)N[C@@H](CCCCN)C(=O)N[C@@H](CO)C(=O)N[C@H](C(=O)NCC(=O)NCC(=O)N[C@@H](CCCCN)C(=O)N[C@@H](C)C(N)=O)[C@@H](C)O)[C@@H](C)O)[C@@H](C)O` [H3K4me3R8me2a], the “ΔH°” value on Spindlin1 (SPIN1_49-262) is -72.4 kJ/mol; on Spindlin1 (SPIN1_49-262) (SD), -72.4 ± 7.95 kJ/mol. The “−TΔS°” value turned out to be 29.3 kJ/mol on Spindlin1 (SPIN1_49-262) and 29.3 ± 7.95 kJ/mol at Spindlin1 (SPIN1_49-262) (SD).
In the case of `C[C@H](N)C(=O)N[C@@H](CCCNC(=N)N)C(=O)N[C@H](C(=O)N[C@@H](CCCC[N+](C)(C)C)C(=O)N[C@@H](CCC(N)=O)C(=O)N[C@H](C(=O)N[C@@H](C)C(=O)N[C@@H](CCCNC(=N)N1CCCCC1)C(=O)N[C@@H](CCCCN)C(=O)N[C@@H](CO)C(=O)N[C@H](C(=O)NCC(=O)NCC(=O)N[C@@H](CCCCN)C(=O)N[C@@H](C)C(N)=O)[C@@H](C)O)[C@@H](C)O)[C@@H](C)O` [H3K4me3R8pip] (H-ART[Lys(Me3)]QTA[X3]KSTGGKA-NH2), on Spindlin1 (SPIN1_49-262) (SD), the “ΔH°” value is -87.4 ± 1.3 kJ/mol and the “−TΔS°” value stood at 46.9 ± 0.42 kJ/mol.
On the same counts, the results for `C[C@H](N)C(=O)N[C@@H](CCCNC(=N)N)C(=O)N[C@H](C(=O)N[C@@H](CCCC[N+](C)(C)C)C(=O)N[C@@H](CCC(N)=O)C(=O)N[C@H](C(=O)N[C@@H](C)C(=O)N[C@@H](CCCNC(=N)N1CCCC1)C(=O)N[C@@H](CCCCN)C(=O)N[C@@H](CO)C(=O)N[C@H](C(=O)NCC(=O)NCC(=O)N[C@@H](CCCCN)C(=O)N[C@@H](C)C(N)=O)[C@@H](C)O)[C@@H](C)O)[C@@H](C)O` [H3K4me3R8pyr] (H-ART[Lys(Me3)]QTA[X4]KSTGGKA-NH2) are -94.1 ± 1.7 kJ/mol and 54.4 ± 2.1 kJ/mol.
Consider `C[C@H](N)C(=O)N[C@@H](CCCNC(=N)N)C(=O)N[C@H](C(=O)N[C@@H](CCCC[N+](C)(C)C)C(=O)N[C@@H](CCC(N)=O)C(=O)N[C@H](C(=O)N[C@@H](C)C(=O)N[C@@H](CCCCNC(=N)N(C)C)C(=O)N[C@@H](CCCCN)C(=O)N[C@@H](CO)C(=O)N[C@H](C(=O)NCC(=O)NCC(=O)N[C@@H](CCCCN)C(=O)N[C@@H](C)C(N)=O)[C@@H](C)O)[C@@H](C)O)[C@@H](C)O` [H3K4me3hR8me2a] (H-ART[Lys(Me3)]QTA[X5]KSTGGKA-NH2), for which, at Spindlin1 (SPIN1_49-262) (SD), the “ΔH°” value was -87.4 ± 2.9 kJ/mol and the “−TΔS°” value amounted to 46 ± 2.9 kJ/mol.
Turning to `C[C@H](N)C(=O)N[C@@H](CCCNC(=N)N)C(=O)N[C@H](C(=O)N[C@@H](CCCC[N+](C)(C)C)C(=O)N[C@@H](CCC(N)=O)C(=O)N[C@H](C(=O)N[C@@H](C)C(=O)N[C@@H](CCNC(=N)N(C)C)C(=O)N[C@@H](CCCCN)C(=O)N[C@@H](CO)C(=O)N[C@H](C(=O)NCC(=O)NCC(=O)N[C@@H](CCCCN)C(=O)N[C@@H](C)C(N)=O)[C@@H](C)O)[C@@H](C)O)[C@@H](C)O` [H3K4me3nR8me2a] (H-ART[Lys(Me3)]QTA[X1]KSTGGKA-NH2), at Spindlin1 (SPIN1_49-262) (SD), the “ΔH°” value is -70.7 ± 5.44 kJ/mol and the “−TΔS°” value was 28.5 ± 5.02 kJ/mol.
Regarding Spindlin1 (from UniProt Q9Y657), the dissociation constant Kd in experiment [1] is 0.016 µM; in experiment [2], 0.139 µM; in experiment [3] it was 0.066 µM; in experiment [4], 0.8 µM; in experiment [5], 0.045 µM.

One may read the Kd as a measure of binding affinity in units of concentration.
